From US20240158446A1, “CYCLIC COMPOUND HAVING SELECTIVE INHIBITORY ACTION ON KRAS OVER HRAS AND NRAS” (CHUGAI SEIYAKU KABUSHIKI KAISHA, priority 2021, published 2024)
Like-named read-outs stand apart in the source and are kept apart here. Where a SMILES comes first, the peptide text is derived from it. Bridges are numbered along the chain shown (N, C = ends). [ ]: non-standard residue; d: D form. The star is where a group is joined. hPhe(3-Cl-4-CF3) = N[C@@H](CCc1ccc(C(F)(F)F)c(Cl)c1)C(=O)O; NPrPhe(4-CF3) = CCCN[C@@H](Cc1ccc(C(F)(F)F)cc1)C(=O)O; Piperazinyl(4-(3-oxetanyl)) = C1OCC1N1CCN(*)CC1; NPrPhe(4-Me) = CCCN[C@@H](Cc1ccc(C)cc1)C(=O)O; NEtPhe(4-Me) = CCN[C@@H](Cc1ccc(C)cc1)C(=O)O; NMeAbu(4,4,4-F3) = CN[C@@H](CC(F)(F)F)C(=O)O; NMePhe(4-F) = CN[C@@H](Cc1ccc(F)cc1)C(=O)O; Morpholine(3S-CO) = O=C(O)[C@@H]1COCCN1; NMeGly(cPent) = CN[C@H](C(=O)O)C1CCCC1; Pro(4,4-F2) = O=C(O)[C@@H]1CC(F)(F)CN1; NEtLeu = CCN[C@@H](CC(C)C)C(=O)O; NMeD = CN[C@@H](CC(=O)O)C(=O)O; NMeL = CN[C@@H](CC(C)C)C(=O)O; Morpholide = C1CN(*)CCO1; NMeA = CN[C@@H](C)C(=O)O; Ac5c = NC1(C(=O)O)CCCC1; Aze = O=C(O)[C@@H]1CCN1; NEtG = CCNCC(=O)O; Sar = CNCC(=O)O

Tests used:
[1] = biological target: GDP-bound KRAS wild-type protein (Homo sapiens, UniProt P01116); assay: Binding to KRAS by surface plasmon resonance (SPR), Single Cycle Kinetics; settings: GDP-bound KRAS wild-type protein, read-out: KRAS KD
[2] = biological target: GDP-bound NRAS wild-type protein (Homo sapiens, UniProt P01111); assay: Binding to NRAS by surface plasmon resonance (SPR), Single Cycle Kinetics; settings: SPR, GDP-bound NRAS wild-type protein vs GDP-bound KRAS wild-type protein
[3] = biological target: GDP-bound HRAS wild-type protein (Homo sapiens, UniProt P01112); assay: Binding to HRAS by surface plasmon resonance (SPR), Single Cycle Kinetics; settings: SPR, GDP-bound HRAS wild-type protein vs GDP-bound KRAS wild-type protein
[4] = SPR Single Cycle Kinetics, 1:1 binding model

Sequence of GDP-bound KRAS wild-type protein (P01116 whole entry): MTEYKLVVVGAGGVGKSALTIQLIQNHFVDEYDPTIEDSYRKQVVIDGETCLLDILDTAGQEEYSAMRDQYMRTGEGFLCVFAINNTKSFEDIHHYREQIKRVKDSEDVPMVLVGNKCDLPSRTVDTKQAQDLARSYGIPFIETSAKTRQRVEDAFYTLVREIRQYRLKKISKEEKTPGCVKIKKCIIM
Sequence of GDP-bound NRAS wild-type protein (P01111 whole entry): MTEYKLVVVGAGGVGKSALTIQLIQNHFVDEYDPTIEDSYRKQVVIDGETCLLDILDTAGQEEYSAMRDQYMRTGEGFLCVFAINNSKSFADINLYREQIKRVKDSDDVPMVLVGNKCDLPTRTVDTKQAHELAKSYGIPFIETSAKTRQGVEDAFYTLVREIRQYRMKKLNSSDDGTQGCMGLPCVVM
Sequence of GDP-bound HRAS wild-type protein (P01112 whole entry): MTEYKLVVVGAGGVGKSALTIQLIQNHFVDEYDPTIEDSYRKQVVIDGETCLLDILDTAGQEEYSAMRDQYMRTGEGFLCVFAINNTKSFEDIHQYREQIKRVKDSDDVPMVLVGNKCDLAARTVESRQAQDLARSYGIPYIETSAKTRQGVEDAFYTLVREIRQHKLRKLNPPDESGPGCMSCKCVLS

| Structure (SMILES) | Kd [1, 4] [pM] | Kd ([1]; SPR, Single Cycle Kinetics) [pM] | NRAS/KRAS (ratio of KD value for NRAS to KD value for KRAS) [2] | HRAS/KRAS (ratio of KD value for HRAS to KD value for KRAS) [3] | NRAS/KRAS (ratio of KD value with respect to NRAS to KD value with respect to KRAS) [2] | HRAS/KRAS (ratio of KD value with respect to HRAS to KD value with respect to KRAS) [3] |
| --- | --- | --- | --- | --- | --- | --- |
| CCCN1C(=O)CN(C)C(=O)CN(C)C(=O)[C@H]([C@@H](C)CC)NC(=O)[C@H](CC(C)C)N(C)C(=O)C[C@@H](C(=O)N2CCN(C3COC3)CC2)N(C)C(=O)[C@H](C2CCCC2)N(C)C(=O)C2(CCCC2)NC(=O)[C@@H]2CCCN2C(=O)[C@H](CCc2ccc(C(F)(F)F)c(Cl)c2)NC(=O)CN(C)C(=O)[C@@H]1Cc1ccc(C(F)(F)F)cc1 [PP0175] ([NMeL]I[Sar][Sar][NPrPhe(4-CF3)][Sar][hPhe(3-Cl-4-CF3)]P[Ac5c][NMeGly(cPent)][NMeD]-{Piperazinyl(4-(3-oxetanyl))}; lactam N-11) | 350 | – | B (a compound having 3 or more and less than 10 is denoted as B) | B (a compound having 3 or more and less than 10 is denoted as B) | – | – |
| CCCN1C(=O)[C@@H]2CCN2C(=O)[C@H](C)N(C)C(=O)[C@H]([C@@H](C)CC)NC(=O)[C@H](CC(C)C)N(CC)C(=O)C[C@@H](C(=O)N2CCOCC2)N(C)C(=O)[C@H](C2CCCC2)N(C)C(=O)C2(CCCC2)NC(=O)[C@@H]2CCCN2C(=O)[C@H](CCc2ccc(C(F)(F)F)c(Cl)c2)NC(=O)CN(C)C(=O)[C@@H]1Cc1ccc(C(F)(F)F)cc1 [PP0151] ([NEtLeu]I[NMeA][Aze][NPrPhe(4-CF3)][Sar][hPhe(3-Cl-4-CF3)]P[Ac5c][NMeGly(cPent)][NMeD]-Morpholide; lactam N-11) | 500 | – | C (A compound having a KD ratio of 0.1 or more and less than 3 is denoted as C) | C (A compound having a KD ratio of 0.1 or more and less than 3 is denoted as C) | – | – |
| CCO[C@@H]1C[C@H]2C(=O)NC3(CCC3)C(=O)N(C)[C@@H](C(CC)CC)C(=O)N(C)[C@H](C(=O)N3CCCC3)CC(=O)N(C)[C@H]3CCC/C=C/c4ccc(cc4)C[C@@H](C(=O)N(C)CC(=O)N[C@@H](CCc4ccc(Cl)c(Cl)c4)C(=O)N2C1)N1CC/C=C\C[C@@H](C1=O)N(C)C(=O)CN(C1CC1)C(=O)[C@H]([C@@H](C)CC)NC3=O [PP3040] | – | 290 | AA (a compound having 20 or more is denoted as AA) | A (a compound having 10 or more and less than 20 is denoted as A) | – | – |
| CCCN1C(=O)CN(CC)C(=O)CN(C)C(=O)[C@H]([C@@H](C)CC)NC(=O)[C@H](CC(C)C)N(C)C(=O)C[C@@H](C(=O)N2CCOCC2)N(C)C(=O)[C@H](C2CCCC2)N(C)C(=O)C2(CCCC2)NC(=O)[C@@H]2CCCN2C(=O)[C@H](CCc2ccc(C(F)(F)F)c(Cl)c2)NC(=O)CN(C)C(=O)[C@@H]1Cc1ccc(C)cc1 [PP0065] ([NMeL]I[Sar][NEtG][NPrPhe(4-Me)][Sar][hPhe(3-Cl-4-CF3)]P[Ac5c][NMeGly(cPent)][NMeD]-Morpholide; lactam N-11) | 540 | – | C (A compound having a KD ratio of 0.1 or more and less than 3 is denoted as C) | C (A compound having a KD ratio of 0.1 or more and less than 3 is denoted as C) | – | – |
| CC[C@H](C)[C@@H]1NC(=O)[C@H](CC(F)(F)F)N(C)C(=O)C[C@@H](C(=O)N2CCOCC2)N(C)C(=O)[C@H](C2CCCC2)N(C)C(=O)C2(CCCC2)NC(=O)[C@@H]2CCCN2C(=O)[C@H](CCc2ccc(C(F)(F)F)c(Cl)c2)NC(=O)CN(C)C(=O)[C@H](Cc2ccc(C)cc2)N(CC)C(=O)CN(C)C(=O)CN(C)C1=O [PP0032] ([NMeAbu(4,4,4-F3)]I[Sar][Sar][NEtPhe(4-Me)][Sar][hPhe(3-Cl-4-CF3)]P[Ac5c][NMeGly(cPent)][NMeD]-Morpholide; lactam N-11) | 370 | – | C (A compound having a KD ratio of 0.1 or more and less than 3 is denoted as C) | C (A compound having a KD ratio of 0.1 or more and less than 3 is denoted as C) | – | – |
| CCO[C@@H]1C[C@H]2C(=O)NC3(CC(C)(C)C3)C(=O)N(C)[C@@H](C(CC)CC)C(=O)N(C)[C@H](C(=O)N(C)C)CC(=O)N(C)[C@@H](CC3CC3)C(=O)N[C@@H]([C@@H](C)CC)C(=O)N(C)CC(=O)N(C)[C@H]3C/C=C\CCN(C3=O)[C@@H](Cc3ccc(C)cc3)C(=O)N(C)CC(=O)N[C@@H](CCc3ccc(C(F)(F)F)c(OC)c3)C(=O)N2C1 [PP2166] | – | 290 | A (a compound having 10 or more and less than 20 is denoted as A) | A (a compound having 10 or more and less than 20 is denoted as A) | – | – |
| CCCN1C(=O)CN(C)C(=O)CN(C)C(=O)[C@H]([C@@H](C)CC)NC(=O)[C@H](CC(F)(F)F)N(C)C(=O)C[C@@H](C(=O)N2CCOCC2)N(C)C(=O)[C@H](C2CCCC2)N(C)C(=O)C2(CCCC2)NC(=O)[C@@H]2CC(F)(F)CN2C(=O)[C@H](CCc2ccc(C(F)(F)F)c(Cl)c2)NC(=O)CN(C)C(=O)[C@@H]1Cc1ccc(C(F)(F)F)cc1 [PP0199] ([NMeAbu(4,4,4-F3)]I[Sar][Sar][NPrPhe(4-CF3)][Sar][hPhe(3-Cl-4-CF3)][Pro(4,4-F2)][Ac5c][NMeGly(cPent)][NMeD]-Morpholide; lactam N-11) | 130 | – | B (a compound having 3 or more and less than 10 is denoted as B) | C (A compound having a KD ratio of 0.1 or more and less than 3 is denoted as C) | – | – |
| CCCN1C(=O)[C@@H]2CCN2C(=O)[C@H](C)N(C)C(=O)[C@H]([C@@H](C)CC)NC(=O)[C@H](CC(C)C)N(C)C(=O)C[C@@H](C(=O)N2CCOCC2)N(C)C(=O)[C@H](C2CCCC2)N(C)C(=O)C2(CCCC2)NC(=O)[C@@H]2COCCN2C(=O)[C@H](CCc2ccc(C(F)(F)F)c(Cl)c2)NC(=O)CN(C)C(=O)[C@@H]1Cc1ccc(C(F)(F)F)cc1 [PP0286] ([NMeL]I[NMeA][Aze][NPrPhe(4-CF3)][Sar][hPhe(3-Cl-4-CF3)][Morpholine(3S-CO)][Ac5c][NMeGly(cPent)][NMeD]-Morpholide; lactam N-11) | 520 | – | C (A compound having a KD ratio of 0.1 or more and less than 3 is denoted as C) | B (a compound having 3 or more and less than 10 is denoted as B) | – | – |
| CC[C@H](C)[C@@H]1NC(=O)[C@H](COC)N(C)C(=O)C[C@@H](C(=O)N(C)C)N(C)C(=O)[C@H](C2CCCC2)N(C)C(=O)C2(CC(C)(C)C2)NC(=O)[C@@H]2C[C@@H](OC(C)C)CN2C(=O)[C@H](CCc2cc(F)c(C(F)(F)F)c(F)c2)NC(=O)CN(C)C(=O)[C@H](CC2CCCCC2)N2CC/C=C\C[C@@H](C2=O)N(C)C(=O)CN(C2CC2)C1=O [PP2511] | – | 950 | A (a compound having 10 or more and less than 20 is denoted as A) | A (a compound having 10 or more and less than 20 is denoted as A) | – | – |

Continued, in another order:

| Kd [1, 4] [pM] | Kd ([1]; SPR, Single Cycle Kinetics) [pM] | Structure (SMILES) | NRAS/KRAS (ratio of KD value for NRAS to KD value for KRAS) [2] | HRAS/KRAS (ratio of KD value for HRAS to KD value for KRAS) [3] | NRAS/KRAS (ratio of KD value with respect to NRAS to KD value with respect to KRAS) [2] | HRAS/KRAS (ratio of KD value with respect to HRAS to KD value with respect to KRAS) [3] |
| --- | --- | --- | --- | --- | --- | --- |
| 98 | – | CC[C@H](C)[C@@H]1NC(=O)[C@H](CC(C)C)N(C)C(=O)C[C@@H](C(=O)N2CCOCC2)N(C)C(=O)[C@H](C2CCCC2)N(C)C(=O)C2(CCCC2)NC(=O)[C@@H]2CCCN2C(=O)[C@H](CCc2ccc(C(F)(F)F)c(Cl)c2)NC(=O)CN(C)C(=O)[C@H](Cc2ccc(F)cc2)N(C)C(=O)CN(C)C(=O)CN(C)C1=O [PP0212] ([NMeL]I[Sar][Sar][NMePhe(4-F)][Sar][hPhe(3-Cl-4-CF3)]P[Ac5c][NMeGly(cPent)][NMeD]-Morpholide; lactam N-11) | C (A compound having a KD ratio of 0.1 or more and less than 3 is denoted as C) | C (A compound having a KD ratio of 0.1 or more and less than 3 is denoted as C) | – | – |
| 280 | – | CCO[C@@H]1C[C@H]2C(=O)NC3(CCC3)C(=O)N(C)[C@@H](C3CCCC3)C(=O)N(C)[C@H](C(=O)N(C)C)CC(=O)N(C)[C@@H](CC)C(=O)N[C@@H]([C@@H](C)CC)C(=O)N(C)CC(=O)N(C)[C@H]3CCCCCN(C3=O)[C@@H](Cc3ccc(C(F)(F)F)cc3)C(=O)N(C)CC(=O)N[C@@H](CCc3cc(F)c(C(F)(F)F)c(F)c3)C(=O)N2C1 [PP0663] | – | – | B (a compound having 3 or more and less than 10 is denoted as B) | B (a compound having 3 or more and less than 10 is denoted as B) |
| – | 1200 | CCO[C@@H]1C[C@H]2C(=O)NC3(CC(C)(C)C3)C(=O)N(C)[C@@H](C3CCCC3)C(=O)N(C)[C@H](C(=O)N3CCOCC3)CC(=O)N(C)[C@@H](COC)C(=O)N[C@@H]([C@@H](C)CC)C(=O)N(C)CC(=O)N(C)[C@H]3CCCCCN(C3=O)[C@@H](Cc3ccc(C(F)(F)F)cc3)C(=O)N(C)CC(=O)N[C@@H](CCc3cc(F)c(C(F)(F)F)c(F)c3)C(=O)N2C1 [PP0844] | B (a compound having 3 or more and less than 10 is denoted as B) | B (a compound having 3 or more and less than 10 is denoted as B) | – | – |
| – | 56 | CC[C@H](C)[C@@H]1NC(=O)[C@H](CC(C)C)N(C)C(=O)C[C@@H](C(=O)N2CCOCC2)N(C)C(=O)[C@H](C2CCCC2)N(C)C(=O)C2(CCC2)NC(=O)[C@@H]2[C@@H](O)CCN2C(=O)[C@H](CCc2cc(F)c(C(F)(F)F)c(F)c2)NC(=O)CN(C)C(=O)[C@H](Cc2ccc(C(F)(F)F)cc2)N2CCCC[C@@H](C2=O)N(C)C(=O)CN(C)C1=O [PP0869] | B (a compound having 3 or more and less than 10 is denoted as B) | B (a compound having 3 or more and less than 10 is denoted as B) | – | – |
